Experimental data published in US12167990B2, “Vitamin composition” (SOCIÉTË DES PRODUITS NESTLË S.A., priority 2016, dated 2024).

Test: Storage test at 60° C. and 68% relative humidity, vitamin A analysed by UPLC
Format: physicochemical
Details: storage at 60° C. and 68% RH; 0.825 wt. % vitamin A palmitate in oil; FIGS. 1 to 7
Description: Palm oil (SUNIA), and vitamin A palmitate (Vitamin A Palmitate 1.7 MIU/g-DSM) were heated in an oven at 60°. Vitamin A palmitate was not held above 60° C. for longer than 5 minutes to avoid possible degradation. The oil was mixed with vitamin A palmitate in a 0.5 liter Schott bottle and then stirred for 10 minutes in a 50° C. water bath. Initial vitamin A palmitate content was 0.825% in oil (a vitamin A palmitate content of 0.165 wt. % in powdered bran). The total amount of lipid was 100 g. A quantity of 10 g of lipid containing vitamin A palmitate was then mixed with 40 g of powdered rice bran with or without phytic acid (Herba Ingredients) in a mortar during 5 minutes. […]
A quantity of 10 g of lipid containing 0.825 wt. % of vitamin A palmitate was mixed with 40 g of wheat bran in a mortar during 5 minutes. […]
A quantity of 10 g of lipid containing 0.825 wt. % of vitamin A palmitate was mixed with 40 g of maltodextrin DE21 in a mortar during 5 minutes. […]
A quantity of 10 g of lipid containing 0.825 wt. % of vitamin A palmitate and 1.87 g of iron pyrophosphate powder were mixed with 38.13 g of powdered rice bran (Herba Ingredients) in a mortar during 5 minutes. […]
For the storage tests, the crystallizing dishes were transferred into a climatic chamber regulated at 60° C. and 68% relative humidity, before being analyzed. […]

CCCCCCCCCCCCCCCC(=O)OC/C=C(C)/C=C/C=C(C)/C=C/C1=C(C)CCCC1(C)C [vitamin A palmitate, retinyl palmitate]
vitamin A stability (degradation curves): very sensitive to temperature and degrades fast
